In US7935335B2, “Strains belonging to the genus Paenibacillus and method of controlling plant disease by using these strains or culture thereof” (Kaken Pharmaceutical Co., Ltd., priority 2004, dated 2011):

Legend:
Format in all cases: in vivo
[1] = tested on: cucumber bacterial blight bacterium (Pseudomonas syringae pv. lachrymans); test: Test Example 3: control effect of purified spores on cucumber bacterial blight; details: cucumber second true leaf; 20 ppm
[2] = tested on: Pseudomonas syringae pv. lachrymans; test: Test Example 5: control effect of a culture broth on melon bacterial blight; details: foliar spray of 2 mL of 2 ppm solution
Protocol: Each of nursery trays was filled with Aisai No. 1 (mfd. by Katakura Chikkarin Co., Ltd.) and a melon (cultivar: Arles) seedling was raised in each tray. In this case, a seed treatment plot was prepared by immersing melon seeds in a Petri dish containing 10 mL (10^8 spores/mL) of the culture broth of strain BS-0105 prepared in Production Example 2, followed by bacterization at 30° C. for 2 hours. After the development of a cotyledon, the seedling was potted in a 12-cm polyethylene pot filled with Aisai No. 1. When three true leaves were completely developed, the following plots were prepared: plots on which drench or foliar spray, respectively, treatment with 1 mL ([…]) of the culture broth of strain BS-0105 prepared in Production Example 2 was carried out, and a plot on which foliar spray of 2 mL of a 2 ppm solution of Acibenzolar-S-methyl was carried out. As to the inoculation of the pathogenic bacterium (Pseudomonas syringae pv. lachrymans), 5 days after the treatment, a liquid containing the bacterial blight bacterium previously cultured on a potato semisynthetic medium (a decoction consisting of 300 g of potato and 1 L of distilled water, calcium nitrate tetrahydrate 0.5 g, disodium hydrogenphosphate dodecahydrate 2 g, peptone 5 g, sucrose 20 g, powdered agar 15 g) was inoculated on the whole of each leaf by spraying so that the reverse side of the leaf might be mainly treated. Inspection for infection was carried out by counting lesions in each of leaves from second to fourth leaves 8 days after the inoculation with the pathogenic bacterium. The protective value was calculated from the number of the lesions by the following equation to make a comparison with respect to control effect. Protective value={1−(number of lesions on treated plot/number of lesions on untreated plot)}×100

[3] = tested on: Fusarium wilt of cucumber fungus (Fusarium oxysporum f. sp. cucumerium); test: Evaluation Example 5: control effect on Fusarium wilt of cucumber; details: 20 ppm, Spray
Protocol: Each of plastic vats was filled with horticultural compost and sown with cucumber (cultivar: Sagamihanjiro), followed by growing in a greenhouse for 12 days. The cucumber young seedling having a developed cotyledon was subjected to foliar spray treatment with the formulation obtained in the above-mentioned preparation example, in a proportion of 1 mL per seedling. After the vats were allowed to stand in a glass house at 25° C. for 3 days, the plant foot of each plant was inoculated with 2 mL of a suspension (3×10^7 spores/mL) of conidia of Fusarium wilt of cucumber fungus (Fusarium oxysporum f. sp. cucumerium) in distilled water by drench. The vats were allowed to stand in a glass house at 25° C. for 14 days to cause the disease. The disease severity was calculated from the degree of infection and then the protective value was calculated from the disease severity values by the following equation to make a comparison with respect to control effect. […]

`CSC(=O)c1cccc2nnsc12` [Acibenzolar-S-methyl, S-methyl 1,2,3-benzothiazole-7-carboxylate] was tested, and the “Number of lesions per leaf” value [1] was 0 b, the Protective value [1] was 100 and the “Protective value Average” value [2] was 78.5. For the same molecule, the “Protective value Fourth leaf” value [2] was 66.7, the “Protective value Second leaf” value [2] was 100.0 and the “Protective value Third leaf” value [2] was 68.8. The Disease severity [3] was 9.4 and the Protective value [3] was 75.6.
